Results as given in ChEMBL document CHEMBL4308841, “Synthesis, in vitro antiproliferative activity, and kinase inhibitory effects of pyrazole-containing diarylureas and diarylamides” (Eur J Med Chem, 2018).

What was measured:
SF-539 = assay: Growth inhibition of human SF539 cells assessed as cell growth at 100 uM incubated for 48 hrs by sulforhodamine B assay relative to control; format: functional; conditions: SF-539, 48 h, read-out: Activity
Malme-3M = assay: Growth inhibition of human MALME-3M cells assessed as cell growth at 1 uM incubated for 48 hrs by sulforhodamine B assay relative to control; format: functional; conditions: read-out: Activity
MDA-MB-231 = assay: Growth inhibition of human MDA-MB-231 cells incubated for 48 hrs by sulforhodamine B assay; format: functional, cell-based; conditions: MDA-MB-231, 48 h
A549 = assay: Growth inhibition of human A549/ATCC cells assessed as cell growth at 0.1 uM incubated for 48 hrs by sulforhodamine B assay relative to control; format: functional; conditions: A549, 48 h, read-out: Activity
NCI-H226 = assay: Growth inhibition of human NCI-H226 cells assessed as cell growth at 0.1 uM incubated for 48 hrs by sulforhodamine B assay relative to control; format: functional; conditions: NCI-H226, 48 h, read-out: Activity
CAKI-1 = assay: Growth inhibition of human Caki1 cells incubated for 48 hrs by sulforhodamine B assay; format: functional, cell-based; conditions: CAKI-1, 48 h
T47D = assay: Growth inhibition of human T47D cells assessed as cell growth at 1 uM incubated for 48 hrs by sulforhodamine B assay relative to control; format: functional; conditions: read-out: Activity
NCI-H522 = assay: Growth inhibition of human NCI-H522 cells assessed as cell growth at 0.01 uM incubated for 48 hrs by sulforhodamine B assay relative to control; format: functional; conditions: NCI-H522, 48 h, read-out: Activity
NCI-H23 = assay: Growth inhibition of human NCI-H23 cells assessed as cell growth at 0.1 uM incubated for 48 hrs by sulforhodamine B assay relative to control; format: functional; conditions: NCI-H23, 48 h, read-out: Activity
PC-3 [1] = assay: Growth inhibition of human PC3 cells assessed as cell growth at 0.1 uM incubated for 48 hrs by sulforhodamine B assay relative to control; format: functional; conditions: PC-3, 48 h, read-out: Activity
OVCAR-4 [2] = assay: Growth inhibition of human OVCAR4 cells assessed as cell growth at 100 uM incubated for 48 hrs by sulforhodamine B assay relative to control; format: functional; conditions: OVCAR-4, 48 h, read-out: Activity
UO-31 = assay: Growth inhibition of human UO31 cells assessed as cell growth at 100 uM incubated for 48 hrs by sulforhodamine B assay relative to control; format: functional; conditions: UO-31, 48 h, read-out: Activity
OVCAR-4 [3] = assay: Growth inhibition of human OVCAR4 cells incubated for 48 hrs by sulforhodamine B assay; format: functional, cell-based; conditions: OVCAR-4, 48 h
COLO 205 [4] = assay: Growth inhibition of human COLO205 cells assessed as cell growth at 0.01 uM incubated for 48 hrs by sulforhodamine B assay relative to control; format: functional; conditions: COLO 205, 48 h, read-out: Activity
COLO 205 [5] = assay: Growth inhibition of human COLO205 cells assessed as cell growth at 0.1 uM incubated for 48 hrs by sulforhodamine B assay relative to control; format: functional; conditions: COLO 205, 48 h, read-out: Activity
SK-MEL-2 [6] = assay: Growth inhibition of human SK-MEL-2 cells assessed as cell growth at 10 uM incubated for 48 hrs by sulforhodamine B assay relative to control; format: functional; conditions: SK-MEL-2, 48 h, read-out: Activity
HCT-15 = assay: Growth inhibition of human HCT15 cells assessed as cell growth at 0.01 uM incubated for 48 hrs by sulforhodamine B assay relative to control; format: functional; conditions: HCT-15, 48 h, read-out: Activity
SK-MEL-2 [7] = assay: Growth inhibition of human SK-MEL-2 cells assessed as cell growth at 1 uM incubated for 48 hrs by sulforhodamine B assay relative to control; format: functional; conditions: SK-MEL-2, 48 h, read-out: Activity
PC-3 [8] = assay: Growth inhibition of human PC3 cells assessed as cell growth at 0.01 uM incubated for 48 hrs by sulforhodamine B assay relative to control; format: functional; conditions: PC-3, 48 h, read-out: Activity
MDA-MB-468 = assay: Growth inhibition of human MDA-MB-468 cells incubated for 48 hrs by sulforhodamine B assay; format: functional, cell-based; conditions: MDA-MB-468, 48 h
SF-295 = assay: Growth inhibition of human SF295 cells assessed as cell growth at 0.1 uM incubated for 48 hrs by sulforhodamine B assay relative to control; format: functional; conditions: SF-295, 48 h, read-out: Activity
CCRF-CEM = assay: Growth inhibition of human CCRF-CEM cells assessed as cell growth at 0.01 uM incubated for 48 hrs by sulforhodamine B assay relative to control; format: functional; conditions: read-out: Activity
SNB-19 = assay: Growth inhibition of human SNB19 cells incubated for 48 hrs by sulforhodamine B assay; format: functional, cell-based; conditions: SNB-19, 48 h
MDA-MB-435 = assay: Growth inhibition of human MDA-MB-435 cells assessed as cell growth at 100 uM incubated for 48 hrs by sulforhodamine B assay relative to control; format: functional; conditions: MDA-MB-435, 48 h, read-out: Activity
NCI-H460 = assay: Growth inhibition of human NCI-H460 cells assessed as cell growth at 100 uM incubated for 48 hrs by sulforhodamine B assay relative to control; format: functional; conditions: NCI-H460, 48 h, read-out: Activity
SW-620 = assay: Growth inhibition of human SW620 cells incubated for 48 hrs by sulforhodamine B assay; format: functional, cell-based; conditions: SW-620, 48 h
SR = assay: Growth inhibition of human SR cells assessed as cell growth at 0.1 uM incubated for 48 hrs by sulforhodamine B assay relative to control; format: functional; conditions: read-out: Activity
NCI/ADR-RES = assay: Growth inhibition of human NCI/ADR-RES cells assessed as cell growth at 0.1 uM incubated for 48 hrs by sulforhodamine B assay relative to control; format: functional; conditions: read-out: Activity
NCI-H322M [9] = assay: Growth inhibition of human NCI-H322M cells assessed as cell growth at 0.01 uM incubated for 48 hrs by sulforhodamine B assay relative to control; format: functional; conditions: read-out: Activity
NCI-H322M [10] = assay: Growth inhibition of human NCI-H322M cells assessed as cell growth at 100 uM incubated for 48 hrs by sulforhodamine B assay relative to control; format: functional; conditions: read-out: Activity
[11] = read-out: LC50 (the source's name)
[12] = read-out: pLC50 (the source's name) (converted)

In the case of `COc1cc(Cl)cc(-c2nn(-c3cccc(NC(=O)Nc4cccc(C(F)(F)F)c4)c3)cc2-c2ccncc2)c1`, the growth at 100 µM (SF-539) is reported as -72%, the growth at 1 µM (Malme-3M) is reported as 75% and the GI50 (MDA-MB-231; read-out: GI50) is reported as 1.59 µM. The CC50 (MDA-MB-231; [11]) was over 100 µM, the TGI (MDA-MB-231; read-out: TGI) was 49.1 µM and the GI50 (MDA-MB-231; read-out: pGI50 (converted)) was 1.58 µM. For the same compound, the CC50 (MDA-MB-231; [12]) was over 100 µM, the TGI (MDA-MB-231; read-out: pTGI (converted)) was 4.9 µM and the growth at 0.1 µM (A549) was 96%. For the same compound, the growth at 0.1 µM (NCI-H226) was 95%, the GI50 (CAKI-1; read-out: GI50) was 1.29 µM and the CC50 (CAKI-1; [11]) was over 100 µM. It also gave a TGI (CAKI-1; read-out: TGI) of 52 µM, a GI50 (CAKI-1; read-out: pGI50 (converted)) of 1.29 µM and a CC50 (CAKI-1; [12]) of over 100 µM. It also gave a TGI (CAKI-1; read-out: pTGI (converted)) of 8.91 µM, a growth at 1 µM (T47D) of 58% and a growth at 0.01 µM (NCI-H522) of 95%. The growth at 0.1 µM (NCI-H23) was 90%, the growth at 0.1 µM (PC-3 [1]) was 57% and the growth at 100 µM (OVCAR-4 [2]) was -13%. The growth at 100 µM (UO-31) was -20%, the GI50 (OVCAR-4 [3]; read-out: GI50) was 2.54 µM and the CC50 (OVCAR-4 [3]; [11]) was over 100 µM. For the same compound, the TGI (OVCAR-4 [3]; read-out: TGI) was 38.8 µM, the GI50 (OVCAR-4 [3]; read-out: pGI50 (converted)) was 2.51 µM and the CC50 (OVCAR-4 [3]; [12]) was over 100 µM. For the same compound, the TGI (OVCAR-4 [3]; read-out: pTGI (converted)) was 38.9 µM, the growth at 0.01 µM (COLO 205 [4]) was 100% and the growth at 0.1 µM (COLO 205 [5]) was 101%. It also gave a growth at 10 µM (SK-MEL-2 [6]) of -36.7%, a growth at 0.01 µM (HCT-15) of 92% and a growth at 1 µM (SK-MEL-2 [7]) of 85%. The growth at 0.01 µM (PC-3 [8]) was 91%, the IC50 (MDA-MB-468) was 1.05 µM and the GI50 (MDA-MB-468; read-out: GI50) was 1.05 µM. The CC50 (MDA-MB-468; [11]) was over 100 µM, the TGI (MDA-MB-468; read-out: TGI) was 49.9 µM and the GI50 (MDA-MB-468; read-out: pGI50 (converted)) was 1.05 µM. It also gave a CC50 (MDA-MB-468; [12]) of over 100 µM, a TGI (MDA-MB-468; read-out: pTGI (converted)) of 5.01 µM and a growth at 0.1 µM (SF-295) of 57%. It also gave a growth at 0.01 µM (CCRF-CEM) of 98%, a GI50 (SNB-19; read-out: GI50) of 2.77 µM and a CC50 (SNB-19; [11]) of over 100 µM. For the same compound, the TGI (SNB-19; read-out: TGI) was 35.9 µM, the GI50 (SNB-19; read-out: pGI50 (converted)) was 2.75 µM and the CC50 (SNB-19; [12]) was over 100 µM. For the same compound, the TGI (SNB-19; read-out: pTGI (converted)) was 35.5 µM, the growth at 100 µM (MDA-MB-435) was -74% and the growth at 100 µM (NCI-H460) was -48%. The GI50 (SW-620; read-out: GI50) was 2.3 µM, the LC50 (SW-620; read-out: LC50) was over 100 µM and the TGI (SW-620; read-out: TGI) was 25.8 µM. For the same compound, the GI50 (SW-620; read-out: pGI50 (converted)) was 2.29 µM, the LC50 (SW-620; read-out: pLC50 (converted)) was over 100 µM and the TGI (SW-620; read-out: pTGI (converted)) was 26.9 µM. It also gave a growth at 0.1 µM (SR) of 93%, a growth at 0.1 µM (NCI/ADR-RES) of 98% and a growth at 0.01 µM (NCI-H322M [9]) of 99%. It also gave a growth at 100 µM (NCI-H322M [10]) of -8%.
